Reference: patent US9901579B2, “Compositions comprising phosphodiesterase inhibitors for use in the treatment of a solid tumor in a human patient” (Sartar Therapeutics Ltd, priority 2013, dated 2018)
Structures can show the parent of a compound that is named as a salt.

Columns and labels:
Format in all cases: cell-based, human
[1] = test system: GIST cell cultures (GIST48 and GIST882); test: xCELLigence System / RTCA DP proliferation analysis; settings: 10 μmol/L or higher concentration
Excerpt: Four different PDE3-inhibitors were used to block the activity of PDE3 enzymes and two kinase-inhibitors to block the activity of KIT and PDGFRA. Cilostazol, milrinone and amrinone were purchased from Sigma (St Louis, Mo., USA) and anagrelide hydrochloride was purchased from Tocris Bioscience (Bristol, UK). […] All other inhibitors were reconstituted in DMSO. In a preliminary analysis, multiple drug concentrations (from 0 to 100 μmol/L) were used to identify effective PDE3 inhibitor doses in the GIST cell lines. Effects on proliferation were analysed using xCELLigence System and the RTCA DP instrument (Acea Biosciences, San Diego, Calif., USA). […] Cell progression to apoptosis after anagrelide hydrochloride treatment was analysed in eight duplicate wells with a Click-iT TUNEL Alexa Fluor 488 Imaging Assay (Invitrogen, Carlsbad, Calif., USA) according to the manufacturer's instructions. Progression to apoptosis was measured after 48 hours and after 96 hours of drug treatments. Cell proliferation was examined by the MTT assay (Roche Diagnostics, Indianapolis, Ind., USA) and the xCELLigence System using the RTCA DP instrument (Acea Biosciences). […] At the end of the incubation, cell proliferation was analyzed from eight duplicate wells by adding 10 μL of the MTT reagent into each well and incubating at 37° C. for four hour. The plates were read with a Multiscan EX Microplate photometer (Thermo Scientific, Rockford, Ill., USA) at the wavelength of 540 nm. For the xCELLigence proliferation assay GIST48 and GIST882 cells were plated at a density of 2.5×10^4 cells/well. Before plating GIST882 cells, the wells were thin coated with Collagen I Rat Tail (Invitrogen, Carlsbad, Calif., USA) according to the manufacturer's instructions using 7.5 μg/mL final collagen concentration.

[2] = test system: GIST882 cells; test: MTT cell proliferation assay, GIST882; settings: 10 μmol/L, 96 hours (four day culture)
Experimental: (§1) GIST882 is a primary human GIST cell line with a homozygous missense mutation in KIT exon 13, encoding a […] mutant KIT oncoprotein (Tuveson, D. A. 2001). […] GIST48 has a primary exon 11 missense mutation and a secondary exon 17 missense mutation (Bauer, S. 2006). LPS141 is a liposarcoma cell line that is established from patient derived de-differentiated liposarcoma (Snyder, E. L. 2009). The cell lines were cultured in a RPMI 1640 medium (GIBCO, California USA) supplemented with 20% fetal bovine serum (FBS) and 2% penicillin/streptomycin. Four different PDE3-inhibitors were used to block the activity of PDE3 enzymes and two kinase-inhibitors to block the activity of KIT and PDGFRA. […] Effects on proliferation were analysed using xCELLigence System and the RTCA DP instrument (Acea Biosciences, San Diego, Calif., USA). […] Cell progression to apoptosis after anagrelide hydrochloride treatment was analysed in eight duplicate wells with a Click-iT TUNEL Alexa Fluor 488 Imaging Assay (Invitrogen, Carlsbad, Calif., USA) according to the manufacturer's instructions. Progression to apoptosis was measured after 48 hours and after 96 hours of drug treatments. […] At the end of the incubation, cell proliferation was analyzed from eight duplicate wells by adding 10 μL of the MTT reagent into each well and incubating at 37° C. for four hour. […]

[3] = test system: LPS141 liposarcoma cell line; test: MTT cell proliferation assay, LPS141; settings: 10 μmol/L, 96 hours (four day culture)
Experimental: as §1

[4] = test system: GIST882 cells; test: Click-iT TUNEL apoptosis assay, GIST882; settings: anagrelide hydrochloride 10 μmol/L, imatinib 0.5 μmol/L
Experimental: (§2) GIST882 is a primary human GIST cell line with a homozygous missense mutation in KIT exon 13, encoding a […] mutant KIT oncoprotein (Tuveson, D. A. 2001). […] GIST48 has a primary exon 11 missense mutation and a secondary exon 17 missense mutation (Bauer, S. 2006). LPS141 is a liposarcoma cell line that is established from patient derived de-differentiated liposarcoma (Snyder, E. L. 2009). The cell lines were cultured in a RPMI 1640 medium (GIBCO, California USA) supplemented with 20% fetal bovine serum (FBS) and 2% penicillin/streptomycin. Four different PDE3-inhibitors were used to block the activity of PDE3 enzymes and two kinase-inhibitors to block the activity of KIT and PDGFRA. Cilostazol, milrinone and amrinone were purchased from Sigma (St Louis, Mo., USA) and anagrelide hydrochloride was purchased from Tocris Bioscience (Bristol, UK). […] All other inhibitors were reconstituted in DMSO. […] Effects on proliferation were analysed using xCELLigence System and the RTCA DP instrument (Acea Biosciences, San Diego, Calif., USA). […] Cell progression to apoptosis after anagrelide hydrochloride treatment was analysed in eight duplicate wells with a Click-iT TUNEL Alexa Fluor 488 Imaging Assay (Invitrogen, Carlsbad, Calif., USA) according to the manufacturer's instructions. Progression to apoptosis was measured after 48 hours and after 96 hours of drug treatments.

[5] = test system: GIST48 cells; test: Click-iT TUNEL apoptosis assay, GIST48; settings: for apoptotic GIST48 cells: anagrelide hydrochloride 10 μmol/L, imatinib 0.5 μmol/L
Experimental: as §2

Compound: Nc1cc(-c2ccncc2)c[nH]c1=O [amrinone]
- anti-proliferative effect on GIST cell cultures [1]: some anti-proliferative effect

Compound: O=C1CN2Cc3c(ccc(Cl)c3Cl)N=C2N1 [anagrelide hydrochloride, 6,7-dichloro-1,5-dihydroimidazo[2,1-b]quinazolin-2(3H)-one]
- anti-proliferative effect on GIST cell cultures [1]: some anti-proliferative effect
- effect on GIST882 cell growth in comparison with DMSO [2]: the only PDE3 inhibitor that had an effect
- effect on LPS141 cell growth in comparison with DMSO [3]: the only PDE3 inhibitor that had an effect
- apoptotic GIST882 cells ([4]; after 48 hours): 22%
- apoptotic GIST882 cells ([4]; after 96 hours): 47%
- apoptotic GIST48 cells ([5]; after 48 hours): 0.6%
- apoptotic GIST48 cells ([5]; after 96 hours): 1%
- DNA fragmentation in GIST48 cells ([5]; anagrelide hydrochloride treatment): only slight DNA fragmentation

Compound: O=C1CCc2cc(OCCCCc3nnnn3C3CCCCC3)ccc2N1 [cilostazol]
- anti-proliferative effect on GIST cell cultures [1]: did not influence cell proliferation

Compound: Cc1[nH]c(=O)c(C#N)cc1-c1ccncc1 [milrinone]
- anti-proliferative effect on GIST cell cultures [1]: did not influence cell proliferation
